Laboratory results: patent US4835139A, “Process for increasing the antagonistic effect of peptidic compounds on hormone-dependent diseases” (Debiopharm S.A., priority 1983, dated 1989)

Columns and labels:
[1] = tested on: prostatic tumor R-3327-H according to Dunning; test: Antagonistic effect on Dunning R-3327-H prostate carcinoma in rats, 30 days; assay type: in vivo; conditions: encapsulated 25 micrograms daily i.m.
From the text: (DUNNING R-3327-H PROSTRATE CARCINOMA).

[2] = Body and organ weights of the rats bearing the Dunning R-3327-H tumor; conditions: 30 days, encapsulated 25 micrograms daily i.m.
Method: In vivo tests were carried out on groups of 7 to 10 animals during a period of 30 days.
The administration of the non-encapsulated Compound A adequately dissolved in a biocompatible solvent was achieved by the subcutaneous injection of two doses every day, each dose containing 25 micrograms of compound A (Table 2) or 12.5 micrograms of compound A (Table 3).
The administration of the encapsulated compound A was achieved by the daily intra-muscular injection of doses of the preparation suspended in a biocompatible solvent, each such dose containing 25 micrograms of compound A.

[3] = Table 2, non-encapsulated 2 x 25 micrograms/day s.c.
[4] = Table 3, non-encapsulated 2 x 12.5 micrograms/day s.c.

For `CC(C)C[C@H](NC(=O)[C@@H](Cc1c[nH]c2ccccc12)NC(=O)[C@H](Cc1ccc(O)cc1)NC(=O)[C@H](CO)NC(=O)[C@H](Cc1c[nH]c2ccccc12)NC(=O)[C@H](Cc1c[nH]cn1)NC(=O)[C@@H]1CCC(=O)N1)C(=O)N[C@@H](CCCNC(=N)N)C(=O)N1CCC[C@H]1C(=O)NCC(N)=O` [Compound A non-encapsulated, (pyro) Glu-His-Trp-Ser-Tyr-D-Trp-Leu-Arg-Pro-Gly-NH2], the “Increase of tumor volume” value [1, 3] was 85 + 19%, the “Tumor (Dunning R3327-H Prostate Carcinoma)” value [1, 3] was 546 + 0.14 mg and the “Increase of tumor volume” value [1, 4] was 110 + 28%. For the same compound, the “Tumor (Dunning R3327-H Prostate Carcinoma)” value [1, 4] was 260 + 68 mg, the Testicles [2, 3] was 1.36 ± 0.14 g and the “Ventral portion of prostate” value [2, 3] was 54 + 5 mg. The Testicles [2, 4] was 1.83 ± 0.07 g and the “Ventral portion of prostate” value [2, 4] was 88 + 7 mg.
